Reference: patent US8168821B2, “Cyclopropylacetic acid derivatives and use thereof” (Bayer Pharma Aktiengesellschaft, priority 2005, dated 2012)
pIC50: −log10 of the molar value.

Key:
saphenous artery rings = experiment: Vasorelaxant effect in vitro (phenylephrine-contracted artery rings); parameters: species or system Rabbits; details: rabbit saphenous artery rings, contraction induced by phenylephrine, concentration reducing contraction by 50%
Description: Rabbits are anesthetized and sacrificed by intravenous injection of thiopental sodium (about 50 mg/kg) and exsanguinated. The saphenous artery is removed and divided into rings 3 mm wide. The rings are mounted singly on in each case a pair of triangular hooks open at the end and made of 0.3 mm-thick special wire (Remanium®). Each ring is placed under an initial tension in 5 ml organ baths with Krebs-Henseleit solution which is at 37° C., is gassed with carbogen and has the following composition: NaCl 119 mM; KCl 4.8 mM; CaCl2×2H2O 1 mM; MgSO4×7H2O 1.4 mM; KH2PO4 1.2 mM; NaHCO3 25 mM; glucose 10 mM; bovine serum albumin 0.001%. The force of contraction is detected with Statham UC2 cells, amplified and digitized via A/D converters (DAS-1802 HC, Keithley Instruments, Munich) and recorded in parallel on chart recorders. Contractions are induced by addition of phenylephrine.
After several (generally 4) control cycles, the substance to be investigated is added in each further run in increasing dosage, and the height of the contraction achieved under the influence of the test substance is compared with the height of the contraction reached in the last preceding run. The concentration necessary to reduce the contraction reached in the preceding control by 50% is calculated from this (IC50). The standard application volume is 5 μl. The proportion of DMSO in the bath solution corresponds to 0.1%.

[1] = molecular target: T1, Heme-free sGC (recombinant soluble guanylate cyclase) (Rattus norvegicus, UniProt P20595); experiment: Stimulation of recombinant soluble guanylate cyclase (sGC) in vitro, heme-free enzyme; assay type: biochemical; details: 10 μM Example 9; heme-free enzyme obtained with 0.5% Tween 20
T1 construct: made in house
T1 sequence (P20595 1-619): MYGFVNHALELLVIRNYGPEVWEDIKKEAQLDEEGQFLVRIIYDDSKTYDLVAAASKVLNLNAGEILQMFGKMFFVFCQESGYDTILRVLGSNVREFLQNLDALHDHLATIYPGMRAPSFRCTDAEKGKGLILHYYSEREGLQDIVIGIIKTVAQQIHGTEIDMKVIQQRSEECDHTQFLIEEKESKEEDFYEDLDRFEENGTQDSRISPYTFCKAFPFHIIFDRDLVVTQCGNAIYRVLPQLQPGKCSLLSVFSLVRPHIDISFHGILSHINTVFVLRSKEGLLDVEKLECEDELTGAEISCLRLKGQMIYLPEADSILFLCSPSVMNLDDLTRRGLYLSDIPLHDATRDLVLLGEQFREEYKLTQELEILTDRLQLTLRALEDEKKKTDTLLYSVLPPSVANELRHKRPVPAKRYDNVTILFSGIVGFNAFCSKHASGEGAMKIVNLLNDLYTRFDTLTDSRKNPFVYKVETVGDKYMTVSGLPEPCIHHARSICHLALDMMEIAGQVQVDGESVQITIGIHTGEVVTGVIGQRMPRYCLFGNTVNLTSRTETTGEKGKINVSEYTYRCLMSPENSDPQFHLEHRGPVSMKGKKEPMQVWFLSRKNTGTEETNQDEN
T1 sequence (P19686 1-690 partner): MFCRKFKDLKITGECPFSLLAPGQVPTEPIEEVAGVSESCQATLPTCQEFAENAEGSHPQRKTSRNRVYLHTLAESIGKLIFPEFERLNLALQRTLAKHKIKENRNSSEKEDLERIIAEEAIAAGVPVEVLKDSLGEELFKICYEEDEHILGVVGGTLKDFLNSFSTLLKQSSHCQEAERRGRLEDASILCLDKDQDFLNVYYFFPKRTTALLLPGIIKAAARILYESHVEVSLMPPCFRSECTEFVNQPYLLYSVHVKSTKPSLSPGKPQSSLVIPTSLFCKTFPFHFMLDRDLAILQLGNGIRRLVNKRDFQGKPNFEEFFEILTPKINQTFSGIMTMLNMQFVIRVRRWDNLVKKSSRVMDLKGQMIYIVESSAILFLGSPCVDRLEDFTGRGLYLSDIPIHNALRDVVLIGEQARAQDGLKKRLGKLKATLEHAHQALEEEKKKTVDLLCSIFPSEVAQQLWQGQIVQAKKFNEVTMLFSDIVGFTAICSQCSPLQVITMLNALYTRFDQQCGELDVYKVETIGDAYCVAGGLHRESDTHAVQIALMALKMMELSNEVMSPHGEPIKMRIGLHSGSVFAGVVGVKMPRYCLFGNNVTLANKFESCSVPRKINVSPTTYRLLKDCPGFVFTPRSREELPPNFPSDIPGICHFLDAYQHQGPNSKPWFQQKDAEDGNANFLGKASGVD
Description: Investigations on the stimulation of recombinant soluble guanylate cyclase (sGC) by the compounds according to the invention with and without sodium nitroprusside, and with and without the heme-dependent sGC inhibitor 1H-1,2,4-oxadiazole-(4,3a)-quinoxalin-1-one (ODQ) are carried out by the method described in detail in the following reference: M. Hoenicka, E. M. Becker, H. Apeler, T. Sirichoke, H. Schroeder, R. Gerzer and J.-P. Stasch, “Purified soluble guanylyl cyclase expressed in a baculovirus/Sf9 system: Stimulation by YC-1, nitric oxide, and […]”, J. Mol. Med. 77 (1999), 14-23. The heme-free guanylate cyclase is obtained by adding Tween 20 to the sample buffer (0.5% in the final concentration).
(§1) The activation of sGC by a test substance is reported as n-fold stimulation of the basal activity.

[2] = molecular target: T2, Heme-containing sGC (recombinant soluble guanylate cyclase) (Rattus norvegicus, UniProt P20595); experiment: Stimulation of recombinant soluble guanylate cyclase (sGC) in vitro, heme-containing enzyme; assay type: biochemical
T2 construct: made in house
T2 sequence (P20595 1-619): T1 sequence (P20595 1-619)
T2 sequence (P19686 1-690 partner): T1 sequence (P19686 1-690 partner)
Text: Hoenicka, E. M. Becker, H. Apeler, T. Sirichoke, H. Schroeder, R. Gerzer and J.-P. Stasch, “Purified soluble guanylyl cyclase expressed in a baculovirus/Sf9 system: Stimulation by YC-1, nitric oxide, and carbon oxide”, J. Mol. Med. 77 (1999), 14-23. The heme-free guanylate cyclase is obtained by adding Tween 20 to the sample buffer (0.5% in the final concentration).
as §1

Q: How did the pIC50 (saphenous artery rings; Oryctolagus cuniculus) turn out when CC(C)(C)c1ccc(COc2ccccc2/C=C/C(CCc2ccc(C(=O)O)cc2)CCC2(CC(=O)O)CC2)cc1 (racemic) [Example 2, 4-((4E)-5-{2-[(4-tert-Butylbenzyl)oxy]phenyl}-3-{2-[1-(carboxymethyl)cyclopropyl]ethyl}pent-4-en-1-yl)benzoic acid] was run?
A: 8.54

Q: How did the pIC50 (saphenous artery rings) turn out when CC(C)(C)c1ccc(COc2ccccc2/C=C/C(CCc2ccc(C(=O)O)cc2)CCC2(CC(=O)O)CC2)cc1 (racemic) [Example 3, 4-((4E)-5-{2-[(4-tert-Butylbenzyl)oxy]phenyl}-3-{2-[1-(carboxymethyl)cyclopropyl]ethyl}pent-4-en-1-yl)benzoic acid] was run?
A: 8.24

Q: How did the pIC50 (saphenous artery rings; Oryctolagus cuniculus) turn out when CC(C)(C)c1ccc(COc2ccccc2/C=C/C(CCC2(CC(=O)O)CC2)Cc2ccc(C(=O)O)cc2)cc1 (racemic) [Example 5] was run?
A: 7.24

Q: How did the pIC50 (saphenous artery rings) turn out when CC(C)(C)c1ccc(COc2ccccc2/C=C/C(CCC2(CC(=O)O)CC2)Cc2ccc(C(=O)O)cc2)cc1 (racemic) [Example 6, 4-((3E)-4-{2-[(4-tert-Butylbenzyl)oxy]phenyl}-2-{2-[1-(carboxymethyl)cyclopropyl]ethyl}but-3-en-1-yl)benzoic acid] was run?
A: 7.48

Q: With O=C(O)CC1(CCC(/C=C/c2ccccc2OCCCCCc2ccccc2)Cc2ccc(C(=O)O)cc2)CC1 (racemic) [Example 8, 4-((3E)-2-{2-[1-(Carboxymethyl)cyclopropyl]ethyl}-4-{2-[(5-phenylpentyl)oxy]phenyl}but-3-en-1-yl)benzoic acid] as the compound, how does the pIC50 (saphenous artery rings) read?
A: 5.99

Q: With O=C(O)CC1(CCC(/C=C/c2ccccc2OCCCCCc2ccccc2)Cc2ccc(C(=O)O)cc2)CC1 (racemic) [Example 9, 4-((3E)-2-{2-[1-(Carboxymethyl)cyclopropyl]ethyl}-4-{2-[(5-phenylpentyl)oxy]phenyl}but-3-en-1-yl)benzoic acid] as the compound, how does the “Stimulation (n-fold) of heme-free sGC, Basal” value [1] read?
A: 21.0 n-fold

Q: And the “Stimulation (n-fold) of heme-containing sGC, Basal” value ([2]; 10 μM Example 9, no addition)?
A: 8.0 n-fold

Q: And the “Stimulation (n-fold) of heme-containing sGC, +0.1 μM DEA/NO” value ([2]; 10 μM Example 9 plus 0.1 μM DEA/NO)?
A: 109.2 n-fold

Q: What about the “Stimulation (n-fold) of heme-containing sGC, +10 μM ODQ” value ([2]; 10 μM Example 9 plus 10 μM ODQ) of the same compound?
A: 41.0 n-fold

Q: What about the “Synergism of combination with NO donor DEA/NO on heme-containing sGC” value ([2]; combination of Example 9 and DEA/NO) of the same compound?
A: no synergistic effect

Q: What about the “Effect of heme-dependent sGC inhibitor ODQ on sGC activation” value ([2]; with ODQ) of the same compound?
A: not blocked

Q: And the pIC50 (saphenous artery rings)?
A: 6.39

Q: With CCN(CC)[N+]([O-])=NO [DEA/NO, 2-(N,N-diethylamino)diazenolate 2-oxide, reference compound] as the compound, how does the “Stimulation (n-fold) of heme-containing sGC by DEA/NO alone” value ([2]; 0.1 μM DEA/NO, 0.0 μM Example 9) read?
A: 101.0 n-fold

Q: How did the “Stimulation (n-fold) of heme-containing sGC with ODQ alone” value ([2]; 10 μM ODQ, 0.0 μM Example 9) turn out when O=c1onc2cnc3ccccc3n12 [ODQ, 1H-1,2,4-oxadiazole-(4,3a)-quinoxalin-1-one, reference compound] was run?
A: 3.7 n-fold
